Columns and labels:
MDCK = assay: Cytotoxicity against MDCK cells measured after 72 hrs et staining-based microscopic analysis; type: cell-based, Canis lupus familiaris; conditions: dog
[1] = test system: Influenza A virus (A/Udorn/307/1972(H3N2))
[2] = Antiviral activity against Influenza A virus (A/WSN/1933(H1N1)) expressing wild-type M2 proton channel infected in MDCK cells assessed as reduction in cytopathic effect after 48 hrs by crystal violet staining-based microscopic analysis; type: functional, cell-based
[3] = test system: Influenza A virus (A/Udorn/307/1972(H3N2)); remark: listed apart in the source
[4] = test system: Influenza A virus (A/Udorn/307/1972(H3N2)); remark: listed apart in the source
[5] = Binding affinity to Influenza virus A (A/Udorn/72 (H3N2)) M2 protein at pH 7.5 in presence of KCl by electrophysiology method; design: species or system Influenza A virus (A/udorn/1972(H3N2))
[6] = test system: Influenza A virus (A/California/07/2009(H1N1)); assay: Inhibition of full-length Influenza A virus (A/California/07/2009(H1N1)) M2 proton channel expressed in HEK cells assessed as inhibition of low-pH-dependent inward proton currents at 100 uM and pH 5.5 measured after 30 mins in presence of CaCl2 by electrophysiology method relative to control; type: cell-based
[7] = test system: Influenza A virus (A/California/07/2009(H1N1)); assay: Inhibition of full-length Influenza A virus (A/California/07/2009(H1N1)) M2 proton channel expressed in HEK cells assessed as inhibition of low-pH-dependent inward proton currents at 100 uM and pH 5.5 measured after 3 mins in presence of CaCl2 by electrophysiology method relative to control; type: cell-based

Row | SMILES | CC50 (MDCK) | -TdeltaS [1] | IC50 [2] | Activity [3] | Activity [4] | Kd [5] | inhibition [6] | inhibition [7] | IC50 ([2]; Influenza A virus, MDCK, 48 h, read-out: IC50)
1 | CC12CC3CC(CC(C3)C13CCCN3)C2 (stereo not drawn) | > 100 µM | -3 kcal/mol | Not Active |  |  |  |  |  | 
2 | CC1(N)C2CC3CC(C2)CC1C3 (stereo not drawn) | 25.6 µM | -1.51 kcal/mol | Not Active |  |  |  |  |  | 
3 | CCCC1(N)C2CC3CC(C2)CC1C3 (stereo not drawn) | > 100 µM | -0.932 kcal/mol | Not Active | 32 degree | 22 degree |  |  |  | 
4 | NC1(C23CC4CC(CC(C4)C2)C3)CCCCC1 | > 100 µM |  | Not Active |  |  |  |  |  | 
5 | NC12CC3CC(CC(C3)C1)C2 [AMANTADINE] | > 100 µM | -1.11 kcal/mol | Not Active | 32 degree | 22 degree | 9 µM |  |  | 
6 | NC1(C23CC4CC(CC(C4)C2)C3)CCCC1 | > 100 µM |  | Not Active |  |  |  | 4% | 4% | 
7 | NC1C2CC3CC(C2)CC1C3 (stereo not drawn) | 70.5 µM | -0.93 kcal/mol | Not Active |  |  |  |  |  | 
8 | CCC1(N)C2CC3CC(C2)CC1C3 (stereo not drawn) | > 100 µM | -1.38 kcal/mol | Not Active |  |  |  |  |  | 
9 | C1CNC2(C1)C1CC3CC(C1)CC2C3 (stereo not drawn) | > 100 µM | -3.97 kcal/mol | Not Active |  |  |  | 5% | 4% | 
10 | CCOC(=O)C1=C[C@@H](OC(CC)CC)[C@H](NC(C)=O)[C@@H](N)C1 [OSELTAMIVIR] |  |  |  |  |  |  |  |  | 0.02 µM
11 | CN1CCCC12C1CC3CC(C1)CC2C3 (stereo not drawn) | > 100 µM | -4.46 kcal/mol | Not Active |  |  |  |  |  | 
